Consider nine molecules from article PMC2724708, “Adenosine Kinase of T. b. rhodesiense Identified as the Putative Target of 4-[5-(4-phenoxyphenyl)-2H-pyrazol-3-yl]morpholine Using Chemical Proteomics” (PLoS Neglected Tropical Diseases, 2009).

Values after ≈ are worked out from the molar mass of the structure shown. Some results are limits rather than exact numbers.

Data set [1] concerns the target T1, glycosomal T. b. rhodesiense glyceraldehyde-3-phosphate dehydrogenase (TbrGAPDH) (Trypanosoma brucei brucei, UniProt P22512).
T1 construct: made in house; host or cells: E. coli BL21(DE3), pET28a
Put plainly: Thermal stability assay (CD spectroscopy) regarding TbrGAPDH. The data set is classed as binding. The conditions noted are these: for ∆Tm of TbrGAPDH: vs TbrGAPDH alone. The procedure:
Thermal unfolding of TbrGAPDH and TbrAK was studied by circular dichroism (CD) spectroscopy at 220 nm within the temperature range of 20–90°C using a heating rate of 40°C/h. […]
All measurements were done in a 0.5 mm cell and contained 0.1 %
(§1) DMSO and 2.5 mM EDTA to prevent enzyme activity. Thermal stability was analyzed in presence of 500 µM substrate to record the maximum stability limit, whereas compounds 1 to 5 were used at a concentration of 50 µM, being the highest concentration achievable for compound 2, to allow comparison of all compounds at the same concentration. For evaluation of the CD spectra, the buffer spectrum was subtracted from the protein CD spectrum. All thermal unfolding curves were fitted to a two-state model that had been published recently. The mean of three independent experiments are reported. […]

For data set [2], the target named is T2, adenosine kinase of T. b. rhodesiense (TbrAK) (Trypanosoma brucei rhodesiense, UniProt Q584S0).
T2 sequence (Q584S0 1-345): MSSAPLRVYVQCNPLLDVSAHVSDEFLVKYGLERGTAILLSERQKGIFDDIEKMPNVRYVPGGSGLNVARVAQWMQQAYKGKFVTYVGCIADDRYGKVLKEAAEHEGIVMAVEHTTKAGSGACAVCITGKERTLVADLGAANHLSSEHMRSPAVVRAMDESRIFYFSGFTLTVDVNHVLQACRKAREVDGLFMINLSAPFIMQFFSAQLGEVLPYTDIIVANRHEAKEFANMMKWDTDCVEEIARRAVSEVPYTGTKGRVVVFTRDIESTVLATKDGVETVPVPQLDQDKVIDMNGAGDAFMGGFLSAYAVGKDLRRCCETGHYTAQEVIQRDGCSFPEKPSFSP
As to the kind of experiment: Thermal stability assay (CD spectroscopy) regarding TbrAK. The class given is binding. The conditions noted are these: for Tm of TbrAK: 13 µM TbrAK. The procedure:
Thermal unfolding of TbrGAPDH and TbrAK was studied by circular dichroism (CD) spectroscopy at 220 nm within the temperature range of 20–90°C using a heating rate of 40°C/h.
as §1, with “TbrAK in buffer E1 (20 mM Hepes, 150 mM NaCl, pH 7.0) was used at 0.5 mg/ml (final concentration 13 µM). All measurements were done in a 0.5 mm cell and contained 0.1 % DMSO” for “DMSO”

The target of data set [3] is T2, adenosine kinase of T. b. rhodesiense (TbrAK). Put plainly: Radiometric assay for kinetic study of TbrAK.
Data set [4] in a line: Solubility limit in the assay mixture. The data set is classed as physicochemical. The conditions noted are these: HPLC activity assay mixture (buffer E1 with 1% DMSO), 37 °C, pH 7, aqueous buffer, kinetic from dmso stock, read-out: solubility limiting concentration.
A further data set concerns T. b. rhodesiense. The arrangement: method as in PMID 17949068. The conditions noted are these: in vitro, blood stage parasite; read-out: IC50 against blood stage T.b. rhodesiense; cited from earlier work.
The target in data set [5] is T2, adenosine kinase of T. b. rhodesiense (TbrAK). Put plainly: HPLC activity assay for TbrAK. The conditions noted are these: for activity at 50 µM: 37°C, ADP/ATP ratio, read-out: TbrAK activity in presence of compound (% of activity without compound); for concentration dependence of the activation effect: range 1–750 µM, up to solubility limit. The data set is classed as biochemical. The procedure:
TbrAK catalyzes the ATP-dependent phosphorylation of the 5′-hydroxyl moiety of adenosine to form AMP and ADP. The activity assay was based on HPLC separation of substrate and products (adenosine, AMP, ADP, and ATP). The mobile phase consisted of 35 mM KH2PO4, 6 mM tetrabutylammonium hydrogensulfate, (pH 7.0, adjusted with KOH), 125 mM EDTA, and 1% (v/v) acetonitrile. The separation was performed isocratically at a flow-rate of 1.5 ml/min and monitored at 254 nm. The standard reaction in 75 µl total volume containing 0.5 mM ATP, 0.5 mM adenosine, 0.5 mM MgCl2, 1% DMSO in buffer E1 (20 mM Hepes, 150 mM NaCl, pH 7.0) was started with the addition of 2 µg TbrAK (final concentration 0.7 µM) and incubated at 37°C for 10 min while shaking vigorously (600 rpm). […] All reactions were stopped by adding 75 µl mobile phase. 50 µl of the sample volume were injected for analysis and the resulting ADP/ATP ratios were calculated and used as a measure of activity. For comparative reasons the activity recorded in absence of compound was set to 100%. The mean of three independent measurements are reported.

On the set-up of data set [6]: method as in PMID 17949068. The conditions noted are these: cited from earlier work.
For data set [7], the system named is bloodstream-form T. b. brucei TbAK RNAi cells. Put plainly: Drug sensitivity test (Alamar blue) on TbAK RNAi knock-down mutant. The class given is cell-based. The procedure:
The construction of the T. b. brucei adenosine kinase gene knock-down mutant has been described recently. Expression of a stem-loop construct targeting TbAK was induced by addition of 10 µg/ml tetracycline to the medium. Down-regulation of TbAK expression was verified by Northern blotting. Parasites were cultivated and drug sensitivity was tested using the Alamar blue test. IC50 values were calculated by nonlinear fitting to the sigmoidal dose-response curve using Origin® software. The assays were performed in triplicates for at least four times.
On the technique in general: The colour change of resazurin is a common sign of viable cells or microbes.

Substrate in data set [8]: Nc1ncnc2c1ncn2[C@@H]1O[C@H](CO)[C@@H](O)[C@H]1O
As to the kind of experiment: purified protein, by the assay type. To be noted: other: in absence of compound 1, 167 µM ATP; pH 7.0; 37.0 °C.

The mark [9] stands for this setting: 50 µM compound, 0.7 µM TbrAK, 10 min.

T1 sequence (P22512 whole entry): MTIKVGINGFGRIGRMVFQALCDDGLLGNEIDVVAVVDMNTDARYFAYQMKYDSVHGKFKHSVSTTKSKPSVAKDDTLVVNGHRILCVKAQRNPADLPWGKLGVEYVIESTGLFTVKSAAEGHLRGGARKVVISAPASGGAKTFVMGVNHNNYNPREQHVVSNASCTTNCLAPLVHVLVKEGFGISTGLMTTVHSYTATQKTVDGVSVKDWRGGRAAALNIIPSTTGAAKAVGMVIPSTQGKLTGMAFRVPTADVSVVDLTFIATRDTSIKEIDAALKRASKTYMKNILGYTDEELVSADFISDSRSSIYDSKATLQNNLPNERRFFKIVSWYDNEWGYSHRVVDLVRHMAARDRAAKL

Turning to `O=CC(O)COP(=O)(O)O` (racemic) [DL-GAP, DL-glyceraldehyde-3-phosphate, reference compound], in [1] (substrate at 500 µM), the “Tm of TbrGAPDH” value came to 50.0 ± 0.7 °C and the “∆Tm of TbrGAPDH” value was 2.4 °C.

Take `Nc1ncnc2c1ncn2[C@@H]1O[C@H](COP(=O)(O)OP(=O)(O)OP(=O)(O)O)[C@@H](O)[C@H]1O` [ATP, reference compound]: the “Tm of TbrAK” value in data set [2] (substrate at 500 µM) is 42.8±0.1 °C. Besides, the “ΔTm of TbrAK” value in data set [2] (substrate at 500 µM, vs apo TbrAK) is −0.3 °C.

`NC(=O)c1ccc[n+]([C@@H]2O[C@H](COP(=O)([O-])OP(=O)(O)OC[C@H]3O[C@@H](n4cnc5c(N)ncnc54)[C@H](O)[C@@H]3O)[C@@H](O)[C@H]2O)c1` [NAD+, reference compound]: in data set [1] (substrate at 500 µM), the “Tm of TbrGAPDH” value amounted to 55.6 ± 0.2 °C and the “∆Tm of TbrGAPDH” value was 8.0 °C.

The Ki is a dissociation constant, usually derived from enzyme kinetics or from competition with a known ligand. Low readings indicate a stronger hold on the target, high ones a looser hold on the target. One may read the ΔTm as the change in melting temperature against a reference sample. For `Nc1ncnc2c1ncn2[C@@H]1O[C@H](CO)[C@@H](O)[C@H]1O` [adenosine], the affinity in [3] corresponds to a Ki of 6.1 ± 1.4 µM. Further, the ΔTm at 500 µM in [2] (read-out: ΔTm of TbrAK) was 7.6 °C. Moreover, the “Tm of TbrAK” value in [2] (substrate at 500 µM) was 50.7±0.2 °C.

What is called IC50 is the concentration that gives 50% inhibition. Take `Nc1ccc(Oc2ccc(-c3cc(N4CCOCC4)[nH]n3)cc2)cc1` [compound 2, 4-[4-(5-morpholine-4-yl-1H-pyrazol-3-yl)-phenoxy]phenylamine]: the solubility in [4] is not above 50 µM. Besides, the “Tm of TbrGAPDH” value in [1] (compound at 50 µM) came out at 47.0 ± 0.4 °C. For the same molecule, the “Tm of TbrAK” value in data set [2] (compound at 50 µM) stood at 45.9±0.4 °C. Besides, in data set [2] (read-out: ΔTm of TbrAK), the ΔTm at 50 µM is 2.8 °C. Moreover, in the data set on T. b. rhodesiense, the IC50 is 17.7 µM. In addition, in [5] (setting [9]), the activity at 50 µM was determined as 174 ± 5%. Moreover, the fold induction at 50 µM in data set [5] (10 min, pH 7, 50 µM compound, read-out: fold increase of TbrAK activity) is 1.7. The “concentration dependence of the activation effect” value (“concentration dependence” for short) in data set [5] was “concentration dependent”.

As for `Nc1ccc(-n2nc(-c3ccc(Oc4ccccc4)cc3)cc2N2CCOCC2)cc1` [compound 3, 4-[5-morpholine-4-yl-3-(4-phenoxyphenyl)-pyrazol-1-yl]phenylamine], in [1] (compound at 50 µM), the “Tm of TbrGAPDH” value turned out to be 45.5 ± 0.6 °C. The “Tm of TbrAK” value in data set [2] (compound at 50 µM) stood at 42.8±0.2 °C. The thermal shift (ΔTm) at 50 µM in data set [2] (read-out: ΔTm of TbrAK) is -0.3 °C. The IC50 in the data set on T. b. rhodesiense was 10.3 µM. Further, the activity at 50 µM in data set [5] (setting [9]) came out at 110 ± 1%. In data set [5], the “concentration dependence” value is on record as “did not activate TbrAK”.

What is called EC50 is the concentration that produces a half-maximal response. Regarding `c1ccc(Oc2ccc(-c3cc(N4CCNCC4)[nH]n3)cc2)cc1` [compound 4], in [4], the solubility turned out to be 750 µM (≈ 240 µg/mL). Further, the “Tm of TbrGAPDH” value in data set [1] (compound at 50 µM) was found to be 47.0 ± 0.1 °C. Further, the “Tm of TbrAK” value in data set [2] (compound at 50 µM) amounted to 43.2±0.1 °C. Moreover, the shift in melting temperature (ΔTm) at 50 µM in data set [2] (read-out: ΔTm of TbrAK) worked out at 0.1 °C. Also, the “cytotoxicity / general toxicity” value in data set [6] was “increased general toxicity”. In addition, the half-inhibitory concentration (IC50) in the data set on T. b. rhodesiense is 1.1 µM. Moreover, in [5] (setting [9]), the activity at 50 µM is 109 ± 1%. Besides, in [5] (0.5 mM ATP, 0.5 mM adenosine, 0.7 µM TbrAK, read-out: EC50 of TbrAK activation (HPLC assay)), the EC50 is more than 750 µM. In addition, the “fold increase of EC50 relative to compound 1” value in data set [5] (HPLC assay) is on record as “at least 20 fold”. Also, the “concentration dependence” value in data set [5] is “concentration dependent”.

Take `c1ccc(Oc2ccc(-c3cc[nH]n3)cc2)cc1` [compound 5, 3-(4-phenoxyphenyl)-1H-pyrazole]: the “Tm of TbrGAPDH” value in [1] (compound at 50 µM) amounted to 46.7 ± 0.2 °C. Also, the “Tm of TbrAK” value in data set [2] (compound at 50 µM) stood at 43.4±0.1 °C. In addition, in data set [2] (read-out: ΔTm of TbrAK), the ΔTm at 50 µM came out at 0.3 °C. Further, the IC50 in data set [6] (read-out: general toxicity IC50) was more than 136 µM; in the data set with T. b. rhodesiense it was more than 65 µM. In addition, in data set [7], the “IC50 difference between induced and non-induced TbAK RNAi cells” value is “did not exhibit any IC50 difference”. In addition, in data set [5] (setting [9]), the activity at 50 µM stood at 102 ± 2%. Moreover, the “concentration dependence” value in data set [5] was “did not activate TbrAK”.

B1: adenosine kinase of T. b. rhodesiense (TbrAK) (Trypanosoma brucei brucei TREU927) (protein)
chain: T2 sequence (Q584S0 1-345)
By Km is commonly meant the substrate concentration at which the rate is half of its maximum. Turning to B1, the Michaelis-Menten constant (Km) in data set [8] turned out to be 0.99 ± 0.05 µM.
